The record followed here is patent publication US12162894B2, “Structural analog of Cyclotheonellazole A, and synthetic method therefor and application method thereof” (The Second People's Hospital of Shenzhen (Shenzhen …, priority 2022, dated 2024).

As a reminder, the IC50 is the point on the concentration scale where inhibition reaches its midpoint.

The assay deals with T1, Neutrophil Elastase (NE) (Homo sapiens, UniProt P08246).
T1 construct: purchased Abcam ab118971
T1 sequence (P08246 30-267): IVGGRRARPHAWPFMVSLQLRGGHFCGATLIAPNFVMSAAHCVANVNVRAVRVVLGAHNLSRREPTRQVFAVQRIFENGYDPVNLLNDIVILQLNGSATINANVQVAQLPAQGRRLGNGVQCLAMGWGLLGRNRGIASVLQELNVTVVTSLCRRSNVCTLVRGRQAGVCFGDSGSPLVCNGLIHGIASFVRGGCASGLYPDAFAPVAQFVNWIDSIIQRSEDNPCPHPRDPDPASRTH
The assay is described as follows: Inhibition of neutrophil elastase (NE), fluorescence kit (Abcam ab118971). Format: biochemical. Particulars: 5 min pre-incubation at 37° C.; Ex/Em=400/505 nm; slope of fluorescence; read-out: IC50, enzyme activity of the NE. How it is done: An Inhabitation Effect of the TM to Neutrophil Elastase (NE)
• 1. Experimental materials include a NE protease detection kit (ab118971) of an Abcam company and TM. • 2. Experimental methods are as follows. In a black 96-well plate, a blank well group, a negative control well group and a sample well group are set, and a reaction system is 100 μL. The blank well group is added with 75 μL of buffer, the negative control well group is added with 50 μL of NE protease and 25 μL of buffer, the sample well group is added with 50 μL of NE protease and 25 μL of TM solution (respectively with concentrations of 0.00001 μM, 0.0001 μM, 0.001 μM, 0.003 μM, 0.01 μM 0.1 μM, 1 μM, and 10 μM), and the three groups are incubated at a temperature of 37° C. for 5 min. Each well is added with 25 μL of substrate, after mixing evenly, fluorescence value of each well is immediately detected at Ex/Em=400/505 nm, and is detected every 20 seconds, and a dynamic process within a range of 0-40 min is observed. Two different time points (T1 and T2) are selected within a linear range of the dynamic process to obtain fluorescence values (RFUT1 and RFUT2) corresponding to the time points, a slope of the fluorescence values is calculated, and the slope can be regarded as an enzyme activity of each well. […] A half inhibitory concentration (IC50) is calculated through the Origin 2021 software. • 3.

Molecules are shown by their SMILES.

Consider `CCC[C@@H]1NC(=O)[C@@H](NC=O)CNC(=O)[C@H](CS(=O)(=O)O)NC(=O)/C=C/c2csc(n2)[C@H](Cc2ccc(O)cc2)NC(=O)C(=O)[C@H]([C@@H](C)CC)NC1=O` [TM], for which the IC50 was determined as 1.27 nM.
